Measured values taken from patent US20170328922A1, “METHODS AND PRODUCTS FOR LABELLING LIPIDS” (UNIVERSITY OF SOUTH AUSTRALIA, priority 2014, published 2017).

Experiments:
[1] = Rhenium molecular probe-lipid overlay (dot blot); format: binding; parameters: key to interaction with Triglycerides (dot blot): ✓ indicates a positive interaction; x indicates no interaction; conditions: for interaction with Triglycerides (dot blot): 10 μM probe, 50 μM lipid on PVDF membrane; for interaction with triglycerides, in words: FIG. 7 / FIG. 8
Procedure: (§1) The experimental protocol probe-lipid overlay was as follows: 50 μM of each lipids was loaded on to PVDF membranes (Perkin Elmer, USA), which were then incubated with molecular probes. PhenCyano and PhenPyridyl were assessed against eleven lipids including; sphingomyelin (Cat # S0756, Sigma Aldrich, USA), sphingosine (Cat # S7049; Sigma Aldrich, USA), L-phosphatidylethanolamine (Cat # P7943, Sigma Aldrich, USA), monosialodanglioside (GM1; Cat # G7641, Sigma Aldrich, USA), oleoly-L-?-lysophosphatidic acid (Cat # L7260, Sigma Aldrich, USA), palmitic acid (Cat # P5917, Sigma Aldrich, USA), sphingomyelin (Cat # S0756, Sigma Aldrich, USA), sphingosine (Cat # S7049; Sigma Aldrich, USA), L-?-phosphatidylethanolamine (Cat # P7943, Sigma Aldrich, USA), monosialodanglioside (GM1; Cat # G7641, Sigma Aldrich, USA), progesterone (Cat #102722, MP Biomedical, USA), ceramide (Cat # C2137; Sigma Aldrich, USA), triacylglycerol mix C2-C10 (Cat #17810, Sigma Aldrich, USA) and cholesteryl acetate (Cat #151114; Sigma Aldrich, USA).
(§2) All other molecular probes were assessed against a panel of six lipids including; sphingomyelin (Cat # S0756, Sigma Aldrich, USA), sphingosine (Cat # S7049; Sigma Aldrich, USA), L-?-phosphatidylethanolamine (Cat # P7943, Sigma Aldrich, USA), monosialodanglioside (GM1; Cat # G7641, Sigma Aldrich, USA), sphingomyelin (Cat # S0756, Sigma Aldrich, USA), sphingosine (Cat # S7049; Sigma Aldrich, USA), L-?-phosphatidylethanolamine (Cat # P7943, Sigma Aldrich, USA), monosialodanglioside (GM1; Cat # G7641, Sigma Aldrich, USA) and triacylglycerol mix C2-C10 (Cat #17810, Sigma Aldrich, USA).
(§3) Lipids were dissolved in ethanol, methanol or isopropanol for loading depending on solubility. Following lipid loading, membranes were left to dry for 20-30 minutes, then they were washed for 10 minutes in cold 10% ethanol, before they were incubated with 10 μM solution of each Rhenium molecular probe in cold 10% ethanol for one hour. Membranes were than washed four times for 10 minutes in cold 10% ethanol prior to imaging. Imaging was performed on an Image Quant Las 4000 (GE, Sweden) luminescent image analyser, with the Rhenium molecular probe being detected by excitation at 460 nm using an epi-blue light source, and detected using an 575 nm ethidium bromide filter.

[2] = Rhenium molecular probe-lipid overlay (dot blot); format: binding; parameters: key to interaction with GM1 (dot blot): ✓ indicates a positive interaction; x indicates no interaction; conditions: for interaction with GM1 (dot blot): 10 μM probe, 50 μM lipid on PVDF membrane; for affinity towards monosialotetrahexosylganglioside (GM1), in words: FIG. 7 / FIG. 8
Procedure: as §1, §2, §3

[3] = Rhenium molecular probe-lipid overlay (dot blot); format: binding; parameters: key to interaction with Sphingomyline (dot blot): ✓ indicates a positive interaction; x indicates no interaction; conditions: for interaction with Sphingomyline (dot blot): 10 μM probe, 50 μM lipid on PVDF membrane; for affinity towards sphingomyelin, in words: FIG. 7 / FIG. 8
Procedure: as §1, §2, §3

[4] = Rhenium molecular probe-lipid overlay (dot blot); format: binding; parameters: key to interaction with Cholestrol (dot blot): ✓ indicates a positive interaction; x indicates no interaction; conditions: for interaction with Cholestrol (dot blot): 10 μM probe, 50 μM lipid on PVDF membrane; for affinity towards cholesterol, in words: FIG. 7 / FIG. 8
Procedure: as §1, §2, §3

[5] = Rhenium molecular probe-lipid overlay (dot blot); format: binding; parameters: key to interaction with Sphingosine (dot blot): ✓ indicates a positive interaction; x indicates no interaction; conditions: for interaction with Sphingosine (dot blot): 10 μM probe, 50 μM lipid on PVDF membrane; for affinity towards sphingosine, in words: FIG. 7 / FIG. 8
Procedure: as §1, §2, §3

[6] = Rhenium molecular probe-lipid overlay (dot blot); format: binding; parameters: key to interaction with PE (dot blot): ✓ indicates a positive interaction; x indicates no interaction; conditions: for interaction with PE (dot blot): 10 μM probe, 50 μM lipid on PVDF membrane; for affinity towards phosphatidylethanolamine (PE), in words: FIG. 7 / FIG. 8
Procedure: as §1, §2, §3

[7] = tested on: Drosophila fat body cells; test: Live tissue staining with rhenium molecular probes (Examples 10, 13); format: cell-based; conditions: live samples, 10-20 μM probe
Procedure: (§4) Probes were dissolved in DMSO to obtain a stock solution with a concentration of 10 mM. Stock solutions were stored at room temperature in a dark place. Working solutions were prepared only at the time of use as the probe has reduced solubility in aqueous solutions. A Working solution was a dilution 1/1000 to 1/500 of the stock in DMSO to PBS or cell medium, and as such the percentage of DMSO used in actual cell experiments was less than 1%.
(§5) For tissues, the tissues were isolated in PBS (or other physiological media) and mounted on a coverslip. For cells, these were grown as per normal practice on coverslips.
(§6) The media was removed media and replaced with 10-20 μM solution of molecular probes in PBS (or appropriate physiological media/cell media) at a dilution of stock solution from 1/1000-1/500, for 15-30 minutes at physiologically appropriate temperature (37° C. for cell culture or 25° C. for insect larvae). […] If foetal calf serum is necessary for cell health, an increased incubation time may be necessary to obtain adequate staining.
The samples were washed for one minute in PBS. If co-staining was performed, the samples were washed in PBS for 30 seconds, before incubating with counterstain.
Tissues were mounted in optical coupling gel, such as carbomer-940 (Snowdrift farm, Tucson, USA) based gel to prevent dehydration prior to imaging and maintain tissue integrate (Rothstein, E. C., Nauman, M., Chesnick S., Balaban R. S., 2006, Multi-photon excitation microscopy in intact animals Journal of Microscopy 222, 58, 64). For cells, the coverslip was mounted in PBS for immediate imaging.
Samples were imaged immediately following staining.
Rhenium molecular probes were? excited at 800-830 nm using a two-photon pulse laser or 405 steady state laser and detection in the range of 490-670 nm, with an emission maxima at around 570.
Micrographs of 3T3 L1, 453 cells and CHOK1 cells and Drosophila fat body tissue stained with rhenium molecular probes, PhenCyan top, PhenPyridyl bottom are shown in FIG. 10. […] Left: confocal images; Right: fluorescence microscopy images. […]

[8] = Rhenium molecular probe-lipid overlay (dot blot); format: binding; parameters: key to interaction with Cholestryl acetate (dot blot): ✓ indicates a positive interaction; x indicates no interaction
Procedure: as §1, §3

[9] = tested on: 3T3 L1 cells; test: Live cell staining with rhenium molecular probes; format: cell-based; conditions: live samples, 10-20 μM probe
Procedure: as §4, §5, §6
The samples were washed for one minute in PBS. […]
Micrographs of 3T3 L1, 453 cells and CHOK1 cells and Drosophila fat body tissue stained with rhenium molecular probes, PhenCyan top, PhenPyridyl bottom are shown in FIG. 10. […] Left: confocal images; Right: fluorescence microscopy images.

[10] = Rhenium molecular probe-lipid overlay (dot blot); format: binding; conditions: FIG. 7
Procedure: as §1, §3

[11] = Rhenium molecular probe-lipid overlay (dot blot); format: binding; conditions: FIG. 7
Procedure: as §1, §3

[12] = Rhenium molecular probe-lipid overlay (dot blot); format: binding; parameters: key to interaction with Lysophosphatidic acid (dot blot): ✓ indicates a positive interaction; x indicates no interaction
Procedure: as §1, §3

[13] = Rhenium molecular probe-lipid overlay (dot blot); format: binding; conditions: FIG. 7
Procedure: as §1
Lipids were dissolved in ethanol, methanol or isopropanol for loading depending on solubility. […] Imaging was performed on an Image Quant Las 4000 (GE, Sweden) luminescent image analyser, with the Rhenium molecular probe being detected by excitation at 460 nm using an epi-blue light source, and detected using an 575 nm ethidium bromide filter.

[14] = tested on: Drosophila fat body tissue; test: Live staining and confocal imaging of explanted fat body tissue; format: cell-based; conditions: fixed fat body, nutrient deprivation/starvation conditions
Procedure: All stocks were maintained in standard medium at 25° C. The yeast GAL4-UAS system was used for targeted gene expression (Brand and Perrimon, 1993). Fat-body specific expression of transgenes from the UAS were driven by CG-GAL4 (Asha et al., 2003). Transgenic UAS-Atg9RNAi stocks (#34901) and UAS-TorTED stocks (#7013) were obtained from the Bloomington Drosophila Stock Centre (Indiana University, IN, USA). Atg8aGFP was driven by an endogenous promoter (Kelso et al., 2004).
Bromophenol-blue was added to the fly media and used to define different developmental time points. […] Newly formed white pupae (0 h PF), were isolated onto moist filter paper and incubated at 25° C. for either two hours (+2 h PF) or four hours (+4 h PF).
Third instar larvae at −8 h PF were removed from standard media (normally feeding at this developmental stage) and placed on filter paper either soaked in 5% (w/v) sucrose (for amino acid deprivation), or 5% (w/v) tryptone pancreatic digest of casein (BD Bioscience USA; for carbohydrate deprivation), or soaked in water (for complete starvation). Larvae were incubated for 4-5 hours prior tissue isolation and imaging.
Fat body tissue was dissected into PBS from Drosophila larvae or pupae. The fat body tissue was either incubated with 10 μM tricarbonyl phenanthrolin (4-cyanophenyltretrazolato) Rhenium (I) in PBS for 15 minutes at room temperature, or LysoTracker® green (according to manufacturer instructions; Invitrogen, USA) and then mounted in carbomer-940 (Snowdrift farm, Tucson, USA) based optical coupling gel to prevent dehydration prior to imaging (Rothstein et al., 2006). For Oil Red O staining, fat body tissue was fixed in 4% (v/v) paraformaldehyde for 20 minutes, and incubated in 1/100 Oil Red 0 for 30 minutes and then washed in PBS before mounting in 80% glycerol.
A Ziess LSM710 META NLO confocal microscope (Zeiss, Germany), supplemented with a two-photon Mai-Tai® (tunable Ti:Sapphire femtosecond pulse laser, 710-920 nm, Spectra-Physics, Australia) was used for imaging. The images were acquired using a Plan-APOCHROMAT 63×/NA1.4 oil immersion objective. The Rhenium probe was excited at 830 nm using the two-photon pulse laser and detect at 600-654 nm. LysoTracker® green was imaged by excitation at 488 nm and detected at 497-558 nm. Atg8a-GFP was imaged with the Rhenium probe by excitation at 830 nm and resolved using spectral un-mixing using the Zen software package (based on spectral figure-printing of the two components). The Rhenium probe images and co-location analysis involved at least five separate images from five independent biological replicates, and one representative image from each treatment was selected for presentation (containing a minimum of 2 cells). For image quantification, two regions of interest (ROI) were selected at random with an area of 2500 μm^2 and the number of fluorescent puncta within the area counted, to give a minimum of 10 counts per treatment group. Comparison of means was performed by ANOVA with a Tukey post hoc tested in GraphPad Prism V.6.01 (USA).

[15] = 10 μM probe, 50 μM lipid on PVDF membrane

Row | Molecule | interaction with Triglycerides (dot blot) [1] | interaction with triglycerides, in words [1] | interaction with GM1 (dot blot) [2] | affinity towards monosialotetrahexosylganglioside (GM1), in words [2] | interaction with Sphingomyline (dot blot) [3] | affinity towards sphingomyelin, in words [3] | interaction with Cholestrol (dot blot) [4] | affinity towards cholesterol, in words [4] | interaction with Sphingosine (dot blot) [5] | affinity towards sphingosine, in words [5] | interaction with PE (dot blot) [6] | affinity towards phosphatidylethanolamine (PE), in words [6] | further results
1 | COC(=O)c1ccc(-c2nn[n]([Re](=[C]=O)(=[C]=O)=[C]=O)n2)cc1.c1cnc2c(c1)ccc1cccnc12 [PhenEster] | ✓ | appeared to interact | ✓ | varying affinity | ✓ | varying affinity | ✓ | varying affinity | ✓ | varying affinity | ✓ | varying affinity | –
2 | O=[C]=[Re](=[C]=O)(=[C]=O)[n]1nnc(-c2cccnc2)n1.c1cnc2c(c1)ccc1cccnc12 [PhenPyridyl, Triscarbonyl phenanthroline (3-pyridyltetrazolato)Rhenium(I)] | – | no interaction detected | ✓ | some affinity | ✓ | some affinity | – | some affinity | – | some affinity | ✓ | some affinity | staining pattern in Drosophila fat body cells [7]: limited to no lipid droplet staining; interaction with Cholestryl acetate (dot blot) [8, 15]: x; interaction with cholesterol ester (cholesteryl acetate), in words ([8]; FIG. 7): no interaction detected; staining pattern in 3T3 L1 cells [9]: limited to no lipid droplet staining; affinity towards progesterone, in words [10]: some affinity; interaction with ceramide, in words [11]: no interaction detected; interaction with Lysophosphatidic acid (dot blot) [12, 15]: ✓; affinity towards lysophosphatidic acid, in words ([12]; FIG. 7): some affinity; interaction with fatty acid (palmitic acid), in words [13]: no interaction detected
3 | Cc1ccc(C)c(N=Nc2cc(C)c(N=Nc3c(O)ccc4ccccc34)cc2C)c1 [oil red, reference compound] | – | – | – | – | – | – | – | – | – | – | – | – | colocalisation of staining with Atg8a-GFP [14]: did not appear to colocalise
4 | facial-Tricarbonyl (η^1(N2)-5- cyanophen-4′-yl tetrazolato) η^2-2,2′- bipyridine Rhenium(I) [BiphenCyano] | x | – | ✓ | varying affinity | ✓ | varying affinity | ✓ | varying affinity | ✓ | varying affinity | ✓ | varying affinity | –
5 | facial-Tricarbonyl (η^1(N2)-5-(methyl bcnzoate-4′-yl tetrazolato) η^2-2,2′- bipyridine Rhenium(I) [BiphenEster] | ✓ | appeared to interact | ✓ | varying affinity | ✓ | varying affinity | – | varying affinity | – | varying affinity | ✓ | varying affinity | –
